What was measured:
rats = assay: toxicity, fatality ratio in rats; type: in vivo; conditions: for Fatality Ratio: rats
Description: The lesser toxicity of the 1-alkaryl derivatives is illustrated by the data of Table 3, which gives the fatality ratio in rats when the compounds were administered in the indicated dosages.

[1] = system: reverse passive Arthus reaction; assay: reverse passive Arthus reaction in the rat; type: in vivo, rat (male Sprague-Dawley); conditions: oral, 100 mg/kg of body weight; lesion measured 4 h after anti-B.S.A.; groups of 4 rats
Text: The anti-inflammatory activity of the compounds used in the invention was established using the reverse passive Arthus reaction in the rat as described by G. W. Carter and R. A. Krause in Federation Proceedings, Vol. 35, page 774, 1976. Although the carrageenin rat paw edema test (Winter et al., Proc. Soc. Exp. Biol. Med., 111, 554, 1962) can also be used to establish anti-inflammatory activity, the Arthus reaction, unlike carrageenin induced edema, is a well-characterized immune reaction which bears close resemblance to the pathogenesis of rheumatoid arthritis.
The Arthus reaction represents one of the oldest and best studied models of immunological injury. It is produced by the injection of antigen locally into a hyperimmunized animal or by the injection of a small amount of antibody into the skin of an animal that has just previously been given a large amount of soluble antigen intravenously. In both cases, the antigen and antibody become deposited in the walls of small venules. Plasma complement is rapidly bound and activated. […]
Thirty minutes after administration of the drug, each animal is injected intradermally with 0.05 ml of 1.44% anti-B.S.A. into the dorsal skin. […] Two perpendicular diameters of each lesion are measured. […]

carrageenin pleurisy = assay: modification of the carrageenin pleurisy assay; type: in vivo
Text: Also tested for comparison was phenylbutazone, a compound known to have anti-inflammatory activity.

SMILES: NC1=NN(c2cccc(C(F)(F)F)c2)CC1 [1-(m-trifluoromethylphenyl)-3-amino-2-pyrazoline, reference compound]
- Fatality Ratio (rats; 285 mg/kg): 8/10

SMILES: NC1=NN(Cc2ccccc2)CC1 [1-benzyl-3-amino-2-pyrazoline]
- % Inhibition Of Lesion [1]: 57%
- % Inhibition Cells (carrageenin pleurisy; 120 mg/kg): 55%
- % Inhibition Volume Exudate (carrageenin pleurisy; 120 mg/kg): 76%
- Fatality Ratio (rats; 512 mg/kg): 0/10
- toxicity relative to 1-aryl derivatives, in words (rats; compared with 1-aryl derivatives of 3-amino-2-pyrazoline): markedly less toxic

SMILES: CCCCC1C(=O)N(c2ccccc2)N(c2ccccc2)C1=O [phenylbutazone, reference compound]
- % Inhibition Cells (carrageenin pleurisy; 100 mg/kg): 13%
- % Inhibition Volume Exudate (carrageenin pleurisy; 100 mg/kg): 59%

SMILES: O=C1CCN(Cc2ccccc2)N1 [1-benzyl-3-pyrazolidinone, reference compound]
- % Inhibition Of Lesion [1]: 28%
